For data set [1], the system named is murine model for endometriosis pain. In words: spontaneous pain quantification (abdominal squashing and contortions) in mouse model of endometriosis. The format is in vivo. How it is done: (§1) After at least one week of acclimatization, donor mice received a subcutaneous injection of 3 μg/mouse estradiol benzoate to stimulate the growth of the endometrium. Seven days later, the uteri of the donor mice were dissected into a Petri dish containing HBSS and split longitudinally with a pair of scissors. Uterine horns from each donor mouse were minced with scissors and scalpel one at the time, ensuring that the maximal diameter of each fragment was consistently smaller than 1 millimeter (mm). Each dissociated uterine horn was then injected intraperitoneally using an 18 G needle into a recipient mouse in 500 μL of HBSS. One donor mouse was used for every two endometriosis mice.
For spontaneous abdominal pain measurements, stretching the abdomen (abdominal contortions) and squashing of the lower abdomen against the floor were quantified. Briefly, for the abdominal contortions, mice were placed in individual chambers in a temperature-controlled (29° C.) glass plate and the number of abdominal contortions was quantified for 10 minutes.
Positive responses consist of a contraction of the abdominal muscle together with stretching of hind limbs. For abdominal squashing, the number of times the mice pressed the lower abdominal region against the floor in five minutes was quantified.
It was therefore tested whether Rimegepant is effective at reducing pain in a murine model (FIG. 1A). Endometriosis lesions were induced in 40 mice and at day 29 post-induction, mice were randomly assigned to treatment with vehicle or Rimegepant at 3, 10, or 30 mg/kg (n=10 mice per group). Treatment was performed daily by oral gavage. Mechanical abdominal pain was determined weekly, 7 to 42 days post implantation (dpi) using von Frey filaments, while abdominal squashing and contortions were determined by counting these pain behaviors. Lesion size was calculated from the mean of two measurements (width and height in mm). […]

For another data set, the system named is endometriosis lesions. In words: endometriosis lesion size measured with calipers in mouse model. The format is in vivo.
Data set [2] deals with murine model for endometriosis pain. In words: von Frey testing of abdominal mechanical pain in non-surgical mouse model of endometriosis. The format is in vivo. On the procedure: as §1
(§2) For mechanical and heat hyperalgesia tests, mice were allowed to habituate to the apparatus for at least 2 hours and during three consecutive days before the beginning of measurements. […] Pain intensity to a mechanical stimulus (mechanical hyperalgesia) in the abdominal region was measured using von Frey filaments. […] The mechanical threshold was determined by the up and down method starting with 0.4 g filament and calculated using the open-source software Up-Down Reader.
It was therefore tested whether Rimegepant is effective at reducing pain in a murine model (FIG. 1A). […] Lesion size was calculated from the mean of two measurements (width and height in mm). […]

Data set [3] shares this test system. In words: endometriosis-associated pain overall (von Frey plus spontaneous pain behaviors) in mouse model. Format: in vivo. The following applies: vs vehicle. How it is done: as §1, §2
For spontaneous abdominal pain measurements, stretching the abdomen (abdominal contortions) and squashing of the lower abdomen against the floor were quantified. […]

The test system is the same in data set [4]. The description is as above. The format is in vivo. The following applies: 29 to 56 dpi, vs vehicle.
For another data set, the system named is peritoneal macrophages. The data set is described as follows: efferocytosis assay: peritoneal macrophages with apoptotic 12z-eGFP cells. The following applies: Rimegepant 100 nM 30 minutes before CGRP 100 nM for 24 hours; apoptotic 12z-eGFP added for 1 hour. Format: cell-based, mouse.
The conditions of data set [5]: cited from earlier work.
Data set [6] concerns mouse endometrial epithelial cells (mEECs). In words: mEEC proliferation assay in transwell co-culture with peritoneal macrophages (CyQuant). The format is cell-based. The following applies: Rimegepant 100 nM 30 minutes before CGRP 100 nM for 24 hours.
Description: Peritoneal cells were collected in FACS buffer from the abdominal cavity of naïve mice. Peritoneal cavity immune cells were seeded in petri dishes in RPMI media and incubated at 37° C. in 5% CO2 for 60 minutes. Non-adherent cells were discarded, and adherent cells (macrophages) were scraped, centrifuged, and counted.
For experiments involving mouse epithelial endometrial cell (mEEC) proliferation, macrophages were plated (100,000 cells per well) onto tissue culture insert and left overnight with 20,000 mEEC plated on the bottom of the well. Stimulus with CGRP (100 nM) or vehicle was performed for 24 hours and then mEEC were used to determine for cell proliferation assay using CyQuant™ kit (Thermo Fisher Scientific #C7026). Treatment with Rimegepant (100 nM) or vehicle was performed 30 minutes before stimulus with CGRP.
In this experiment, peritoneal macrophages were plated on a cell culture insert and co-cultured with a mouse epithelial endometrial cell line (mEEC) in a 24-well plate. Cell growth was assessed using the CyQuant™ kit and quantification performed in a spectrophotometer (n=8 well per group).
Macrophages were plated onto tissue culture insert with mEEC plated on the bottom of the well. […] Results shown are expressed as mean±SEM, n=5−12 (one-way ANOVA followed by Tukey's post hoc or Student's t-test, ****P<0.0001, p<0.001, **p<0.02, *p<0.05).
[7] abbreviates: nociceptor ablation in RTX-treated lesion-bearing mice.
Setting [8] is: Rimegepant 3, 10 or 30 mg/kg daily by oral gavage, 29 to 42 dpi, vs vehicle.

“Also recorded” adds a separate entry of the source.

As for `C=C(C)[C@]12C[C@@H](C)[C@@]34O[C@](Cc5ccccc5)(O[C@@H]1[C@@H]3C=C(COC(=O)Cc1ccc(O)c(OC)c1)C[C@]1(O)C(=O)C(C)=C[C@@H]41)O2` [RTX, resiniferatoxin toxin], in data set [1] (setting [7]), the spontaneous pain behaviors entry is given as “reduced”. Besides, the lesion size result in the data set with endometriosis lesions (setting [7]) is given as “reduced”. For the same molecule, in data set [2] (setting [7]), the evoked pain entry was “reduced”.

For the molecule `CC[N+](CC)(CC)CC(=O)Nc1c(C)cccc1C` [QX-314], the endometriosis-associated pain result in data set [3] (QX-314 0.1 or 1 mg/kg daily i.p., 29 to 35 dpi) is listed as “reduced endometriosis-associated pain; also recorded: reduces”. The lesion size entry with endometriosis lesions (QX-314 0.1 or 1 mg/kg daily i.p., 29 to 35 dpi, vs vehicle) is “reduced lesion size; also recorded: reduces”.

Turning to `C[C@@H]1[C@H](c2ccccc2)C[C@H](NC(=O)c2cnc3c(c2)C[C@@]2(C3)C(=O)Nc3ncccc32)C(=O)N1CC(F)(F)F` [Ubrogepant], the endometriosis-associated pain entry in data set [4] (Ubrogepant 50 mg/kg daily per oral gavage) is given as “significant reduction”; in data set [4] (Ubrogepant 50 mg/kg daily per oral gavage, listed as Ubrogevant) it was “reduce”. Moreover, the lesion size result with endometriosis lesions (Ubrogepant 50 mg/kg daily per oral gavage, 29 to 56 dpi, vs vehicle) is on record as “significantly smaller”; in the data set with endometriosis lesions (Ubrogepant 50 mg/kg daily per oral gavage, 29 to 56 dpi, vs vehicle, listed as Ubrogevant), “reduce”.

As to `N[C@@H]1c2cccnc2[C@H](OC(=O)N2CCC(n3c(=O)[nH]c4ncccc43)CC2)CC[C@H]1c1cccc(F)c1F` [Rimegepant], the endometriosis-associated pain entry in data set [3] (Rimegepant 3, 10 or 30 mg/kg daily by oral gavage, 29 to 42 dpi) is listed as “reduces endometriosis-associated pain”. For the same molecule, in the data set on peritoneal macrophages, the “efferocytosis activity of CGRP-stimulated macrophages (eGFP fluorescence intensity)” value is recorded as “rescued; also recorded: restores normal levels of efferocytosis”. Moreover, in data set [1] (setting [8]), the “number of abdominal contortion” value is “reduced” and the “number of abdominal squashing” value was “reduced”. In addition, the lesion size entry in the data set with endometriosis lesions (setting [8]) was “reduced lesion size; also recorded: reduces”. Further, in data set [2] (setting [8]), the “abdominal mechanical threshold to the von Frey fibers” value is recorded as “increased”. In addition, in data set [5] (chronic treatment (26 weeks)), the “preclinical safety profile upon chronic treatment” value was “safe preclinical profile”. Further, the “adverse effects on fertility” value in data set [5] (doses as high as 60 mg/kg) is recorded as “no adverse effects on fertility”. In data set [6], the “growth (proliferation) of mEEC promoted by CGRP-stimulated macrophages” value is on record as “inhibited; also recorded: reduces mEEC proliferation”.

B1: Fremanezumab (antibody, chains of the INN, looked up, V domains shown)
VH: EVQLVESGGGLVQPGGSLRLSCAASGFTFSNYWISWVRQAPGKGLEWVAEIRSESDASATHYAEAVKGRFTISRDNAKNSLYLQMNSLRAEDTAVYYCLAYFDYGLAIQNYWGQGTLVTVSS
VL: EIVLTQSPATLSLSPGERATLSCKASKRVTTYVSWYQQKPGQAPRLLIYGASNRYLGIPARFSGSGSGTDFTLTISSLEPEDFAVYYCSQSYNYPYTFGQGTKLEIK
notes: a monoclonal antibody antagonist of CGRP
For the molecule B1, the endometriosis-associated pain entry in data set [4] (Fremanezumab 100 mg/kg subcutaneous injection) is recorded as “significant reduction; also recorded: reduce”. Besides, in the data set with endometriosis lesions (Fremanezumab 100 mg/kg subcutaneous injection, 29 to 56 dpi, vs vehicle), the lesion size result is listed as “significantly smaller; also recorded: reduce”.

B2: Galcanezumab (antibody, chains of the INN, looked up, V domains shown)
VH: QVQLVQSGAEVKKPGSSVKVSCKASGYTFGNYWMQWVRQAPGQGLEWMGAIYEGTGKTVYIQKFADRVTITADKSTSTAYMELSSLRSEDTAVYYCARLSDYVSGFGYWGQGTTVTVSS
VL: DIQMTQSPSSLSASVGDRVTITCRASKDISKYLNWYQQKPGKAPKLLIYYTSGYHSGVPSRFSGSGSGTDFTLTISSLQPEDFATYYCQQGDALPPTFGGGTKVEIK
notes: a second monoclonal antibody antagonist of CGRP
Turning to B2, the endometriosis-associated pain result in data set [4] (Galcanezumab 4 mg/kg subcutaneous injection) was “significant reduction; also recorded: reduce”. The lesion size result with endometriosis lesions (Galcanezumab 4 mg/kg subcutaneous injection, 29 to 56 dpi, vs vehicle) is reported as “reduce”.

The values are drawn from patent US20260174823A1 (The Children's Medical Center Corporation, priority 2022, published 2026).
